# Experimental data reported in patent US9446147B2, “Membrane stabilizing compositions and methods” (The Ohio State University, priority 2011, dated 2016).
# How the values were obtained:
# [1] = lyophilization and rehydration of calcein-loaded LUVs (contents loss, DLS, cryo-TEM); assay type: physicochemical; conditions: used in place of cholesterol glycopolymer 8 in DPPC or hydrogenated ePC LUVs
# Experimental: (§1) The anhydrobiotic membrane preservation properties of the trehalose polymers on supported lipid bilayers (SLBs) were tested. […] Moreover, lyophilized calcein-loaded trehalose-polymer vesicles could be rehydrated without contents loss and maintenance of vesicle size distribution. The cryo-preservative effects of trehalose and other sugars on proteins and membrane structures has been known for some time, though high solution concentrations are required; here we find that preservative properties at mole ratios of about 10% to about 30%. This preservative property permits long-term anhydrous storage of reagents without compromising therapeutic effect. Thus, membrane-anchored polysaccharides may be a useful biotechnology tool for production of systemic drug carriers that are stable to attack from serum proteins, dehydration and freeze-drying.
# Sugar solutions (10:1 sugar:lipid) are known to protect LUVs from contents loss and fusion upon lyophilization and rehydration. It was find that covalent presentation of polymeric trehalose on multiple lipid anchors confers significant membrane anhydrobiotic and cryo-protection at sugar:lipid ratios of 0.1-0.3. […] LUVs containing phospholipid glycodimer 7 and phospholipid glycopolymer 9 readily deposited, possibly by virtue of higher membrane fluidity.
# [2] = contents release assay of calcein-loaded vesicles in fetal bovine serum; assay type: in vitro ADME; conditions: vesicles of 80% DPPC and 20% dimer
# Text: […] Vesicle stabilization by the glycolipid derivatives was strongly affected by degree of oligomerization and solubility. […] Though there is clearly an advantage to structures larger than a dimer, larger oligomer or polymers may be limited by their ability to incorporate into the lipid membrane. Thus, it was difficult to achieve mole percent incorporation levels higher than 10% for phospholipid glycopolymer 9 and 30% for cholesterol glycopolymer 8.
# [3] = dehydration-rehydration of supported lipid bilayers (SLBs), microscopy and FRAP; assay type: physicochemical; conditions: supported lipid bilayers on glass
# Experimental: as §1
# FIGS. 10A and 10B are photomicrographs of supported lipid bilayers containing (A) phospholipid dimer 7 or (B) phospholipid polymer. The mole percent is as indicated. The top rows of (A) and (B) show freshly formed SLBs; whereas the bottom rows show SLBs after drying and rehydration. The photos were taken at 10× magnification and the scale bar is 100 μm. FIGS. 10C and 10D show FRAP containing SLBs with 10% phospholipid polymer before and after dehydration, respectively. These photos were taken at 40× magnification and the scale bar is 40 μm.
Compound,contents loss and fusion after lyophilization and rehydration [1],contents loss upon exposure to serum [2],protection of SLBs from delamination on drying/rehydration [3]
CC(C)CCC[C@@H](C)[C@H]1CC[C@H]2[C@@H]3CC=C4C[C@@H](O)CC[C@]4(C)[C@H]3CC[C@]12C [cholesterol],total contents loss and extensive fusion,–,–
trehalose cholesterol thioglycolate thioether dimer,–,greatly minimized,protect supported lipid bilayers from delamination upon drying
